According to ChEMBL document CHEMBL5113518, “Discovery of a Novel G-Quadruplex and Histone Deacetylase (HDAC) Dual-Targeting Agent for the Treatment of Triple-Negative Breast Cancer” (J Med Chem, 2022):
Calls of active or inactive are those of the source. The rule behind the calls is not given here.

Columns and labels:
Histone deacetylase [1] = assay: Inhibition of HDAC in human HeLa nuclear extract incubated for 30 mins by fluorescence-based Glo-luminescence assay; type: cell-based
Histone deacetylase 8 = target: T1, Histone deacetylase 8 (Homo sapiens, UniProt Q9BY41); assay: Inhibition of full length recombinant N-terminal GST-tagged human HDAC8 expressed in baculovirus infected Sf9 insect cells incubated for 50 mins by Glo- luminescence assay
T1 sequence (Q9BY41 whole entry): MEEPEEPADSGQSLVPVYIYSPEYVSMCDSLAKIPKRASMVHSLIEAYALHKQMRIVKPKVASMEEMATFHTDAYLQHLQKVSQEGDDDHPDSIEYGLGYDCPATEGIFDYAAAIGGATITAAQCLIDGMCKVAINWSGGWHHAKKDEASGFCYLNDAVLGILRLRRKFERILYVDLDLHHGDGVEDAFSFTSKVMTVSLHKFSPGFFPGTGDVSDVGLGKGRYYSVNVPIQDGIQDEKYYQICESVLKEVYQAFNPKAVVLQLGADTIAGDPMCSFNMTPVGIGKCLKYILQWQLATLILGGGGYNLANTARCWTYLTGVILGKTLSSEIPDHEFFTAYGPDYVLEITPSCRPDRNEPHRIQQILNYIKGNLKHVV

Histone deacetylase 4 = Histone deacetylase 4 (Homo sapiens, UniProt P56524); assay: Inhibition of full length recombinant N-terminal GST-tagged human HDAC4 (612 to end residues)expressed in baculovirus infected Sf9 insect cells incubated for 50 mins by Glo- luminescence assay
[2] = target: T2, Protein deacetylase HDAC6 (Homo sapiens, UniProt Q9UBN7); assay: Inhibition of full length recombinant N-terminal GST-tagged human HDAC6 expressed in baculovirus infected Sf9 insect cells incubated for 50 mins by Glo- luminescence assay
T2 sequence (Q9UBN7 whole entry): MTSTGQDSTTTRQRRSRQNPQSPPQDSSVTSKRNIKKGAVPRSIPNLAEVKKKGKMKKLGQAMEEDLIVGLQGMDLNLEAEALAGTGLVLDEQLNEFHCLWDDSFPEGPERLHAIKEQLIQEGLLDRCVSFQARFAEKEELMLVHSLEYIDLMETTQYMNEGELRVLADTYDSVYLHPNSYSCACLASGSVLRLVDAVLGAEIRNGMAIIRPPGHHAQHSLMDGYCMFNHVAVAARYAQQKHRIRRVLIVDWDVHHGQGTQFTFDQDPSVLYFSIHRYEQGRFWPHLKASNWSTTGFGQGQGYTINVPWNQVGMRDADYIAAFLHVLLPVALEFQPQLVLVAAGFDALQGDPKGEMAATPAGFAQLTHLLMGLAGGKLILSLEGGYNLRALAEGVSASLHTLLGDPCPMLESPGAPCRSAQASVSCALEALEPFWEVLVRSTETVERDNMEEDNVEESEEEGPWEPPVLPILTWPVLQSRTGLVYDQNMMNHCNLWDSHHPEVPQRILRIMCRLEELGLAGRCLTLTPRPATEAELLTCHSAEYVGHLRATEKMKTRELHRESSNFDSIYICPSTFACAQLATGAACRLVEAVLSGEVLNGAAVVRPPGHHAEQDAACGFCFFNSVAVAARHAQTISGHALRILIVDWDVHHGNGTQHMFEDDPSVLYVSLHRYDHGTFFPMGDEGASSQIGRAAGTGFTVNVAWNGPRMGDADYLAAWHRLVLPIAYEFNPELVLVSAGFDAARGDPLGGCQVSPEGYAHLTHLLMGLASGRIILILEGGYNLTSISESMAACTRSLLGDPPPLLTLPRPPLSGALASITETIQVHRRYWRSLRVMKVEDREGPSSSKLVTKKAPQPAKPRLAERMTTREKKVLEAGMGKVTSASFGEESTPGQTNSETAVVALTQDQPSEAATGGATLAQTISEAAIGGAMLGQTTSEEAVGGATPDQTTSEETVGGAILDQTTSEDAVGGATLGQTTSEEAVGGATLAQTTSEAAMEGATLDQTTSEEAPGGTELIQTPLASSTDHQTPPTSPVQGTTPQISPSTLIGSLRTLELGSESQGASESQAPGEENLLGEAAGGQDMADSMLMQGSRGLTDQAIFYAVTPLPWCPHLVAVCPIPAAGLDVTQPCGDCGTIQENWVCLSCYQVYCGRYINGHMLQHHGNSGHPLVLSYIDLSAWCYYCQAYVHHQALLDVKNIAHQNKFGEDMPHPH

[3] = Inhibition of full length recombinant N-terminal GST-tagged human HDAC11 expressed in baculovirus infected Sf9 insect cells incubated for 50 mins by Glo- luminescence assay; type: cell-based
Quadruplex DNA [4] = assay: Binding affinity to 5' FAM-labeled […] (unknown origin) assessed as dissociation constant by surface plasmon resonance assay; type: nucleic-acid assay
Quadruplex DNA [5] = assay: Binding affinity to 5' FAM and 3' TAMRA-labeled […] (unknown origin) assessed as change in melting temperature by fluorescence resonance energy transfer assay; type: nucleic-acid assay
Quadruplex DNA [6] = assay: Binding affinity to 5' FAM and 3' TAMRA-labeled c-myc G4-quadruplex DNA HTG21 (unknown origin) assessed as change in melting temperature by fluorescence resonance energy transfer assay; type: nucleic-acid assay
Quadruplex DNA [7] = assay: Binding affinity to 5' FAM and 3' TAMRA-labeled c-myc G4-quadruplex DNA duplex (unknown origin) assessed as change in melting temperature by fluorescence resonance energy transfer assay; type: nucleic-acid assay
[8] = Stabilization of DNA Pu22 (unknown origin ) single strand assessed as G4-quadruplex formation in absence of potassium ions by spectrum based circular dichroism analysis; conditions: dose <= 30.0 µM; DDE = dose-dependent effect
Histone deacetylase [9] = assay: Inhibition of HDAC in human MDA-MB-231 cells incubated for 45 mins by luminescence assay; type: cell-based
MDA-MB-231 [10] = assay: Induction of cell cycle arrest in human MDA-MB-231 cells assessed as accumulation at G2/M phase at 2.5 uM measured for 6 to 48 hrs; type: functional, cell-based; conditions: time 6-48 hrs
SUM-159-PT [11] = assay: Cytotoxicity against human SUM159PT cells harboring wild type BRCA1 and wild type BRCA2 assessed as reduction in cell viability; type: functional, cell-based
SUM-159-PT [12] = assay: Inhibition of colony formation in human SUM159PT cells measured for 7 days by crystal violet staining based assay; type: functional, cell-based; conditions: dose 2.5 µM, time 7.0 day, DDE = dose-dependent effect
SUM-159-PT [13] = assay: Induction of DNA damage in human SUM159PT at 1.25 to 5 uM assessed as increase in gamma-H2AX level and measured for 48 hrs by DAPI staining method; type: functional, cell-based; conditions: dose 1.25-5 µM
MDA-MB-231 [14] = assay: Antitumor activity against human MDA-MB-231 cells xenografted in BALB/c-nu/nu mouse assessed as reduction in tumor volume at 2.5 mg/kg, ip measured for 31 days; type: functional, organism-based; conditions: time 31.0 day
MDA-MB-231 [15] = assay: Antitumor activity against human MDA-MB-231 cells xenografted in BALB/c-nu/nu mouse assessed as increment ratio at 2.5 mg/kg, ip measured for 31 days; type: functional; conditions: time 31 day
MDA-MB-231 [16] = assay: Antitumor activity against human MDA-MB-231 cells xenografted in BALB/c-nu/nu mouse assessed as tumor growth inhibition at 2.5 mg/kg, ip measured for 31 days; type: functional; conditions: MDA-MB-231, 744 h, time 31 day, read-out: TGI

Sequence of Histone deacetylase 4 (P56524 whole entry): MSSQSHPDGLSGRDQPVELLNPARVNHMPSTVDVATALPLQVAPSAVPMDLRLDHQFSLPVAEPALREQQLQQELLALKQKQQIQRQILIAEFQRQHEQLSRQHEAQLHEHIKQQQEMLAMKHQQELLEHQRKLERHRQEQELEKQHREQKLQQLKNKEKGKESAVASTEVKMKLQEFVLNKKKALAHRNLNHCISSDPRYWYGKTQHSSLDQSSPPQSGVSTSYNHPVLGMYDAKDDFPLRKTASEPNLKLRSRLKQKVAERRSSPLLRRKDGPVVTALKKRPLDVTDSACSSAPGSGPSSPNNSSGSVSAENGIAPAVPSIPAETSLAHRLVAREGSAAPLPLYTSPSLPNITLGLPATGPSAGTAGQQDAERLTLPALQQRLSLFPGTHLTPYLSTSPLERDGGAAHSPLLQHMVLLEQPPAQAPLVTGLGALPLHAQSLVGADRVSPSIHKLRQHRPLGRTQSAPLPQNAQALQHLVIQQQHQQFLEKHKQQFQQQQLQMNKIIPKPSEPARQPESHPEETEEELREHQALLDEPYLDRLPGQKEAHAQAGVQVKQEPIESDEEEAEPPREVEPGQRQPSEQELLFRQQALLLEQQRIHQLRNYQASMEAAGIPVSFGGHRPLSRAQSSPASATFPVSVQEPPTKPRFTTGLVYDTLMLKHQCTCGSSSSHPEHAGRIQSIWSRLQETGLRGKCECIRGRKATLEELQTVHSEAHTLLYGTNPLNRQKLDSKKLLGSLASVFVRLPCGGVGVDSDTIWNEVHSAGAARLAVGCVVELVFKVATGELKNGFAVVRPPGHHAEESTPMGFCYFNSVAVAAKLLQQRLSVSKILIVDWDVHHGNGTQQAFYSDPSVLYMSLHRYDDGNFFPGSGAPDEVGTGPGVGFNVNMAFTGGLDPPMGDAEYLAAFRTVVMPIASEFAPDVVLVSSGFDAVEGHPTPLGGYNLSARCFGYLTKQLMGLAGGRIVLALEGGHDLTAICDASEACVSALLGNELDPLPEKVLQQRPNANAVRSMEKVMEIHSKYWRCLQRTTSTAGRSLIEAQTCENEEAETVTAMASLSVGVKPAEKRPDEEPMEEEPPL

SMILES: CN(C)CCCNC(=O)c1ccc(/C=C2\CCn3c2nc2cc(N4CCN(CCCCCCCC(=O)NO)CC4)c(F)cc2c3=O)cc1.Cl
- IC50 (Histone deacetylase [1]): 1900 nM
- IC50 (Histone deacetylase 8): 30 nM
- IC50 (Histone deacetylase 4): 2640 nM
- IC50 [2]: 650 nM
- IC50 [3]: 1380 nM
- Kd (Quadruplex DNA [4]): 4500 nM
- ΔTm (Quadruplex DNA [5]): 1.2 °C
- ΔTm (Quadruplex DNA [6]): 2 °C
- ΔTm (Quadruplex DNA [7]): 0.1 °C
- Activity [8]: Dde
- IC50 (Histone deacetylase [9]): 1100 nM
- Activity (MDA-MB-231 [10]): Active
- IC50 (SUM-159-PT [11]): 7400 nM
- inhibition (SUM-159-PT [12]): Dde
- Activity (SUM-159-PT [13]): Active
- Activity (MDA-MB-231 [14]): Active
- T/C (MDA-MB-231 [15]): 36.2%
- inhibition in vivo at 2.5 mg/kg (MDA-MB-231 [16]): 69%
